# According to US7544664B2, “Sequences facilitating penetration of a substance of interest” (priority 2003, dated 2009):
# Assays:
# [1] = system: Candida parapsilosis (ATCC 22019); assay: In vitro antifungal activity MIC80 (NCCLS M27A); conditions: MIC80, 48 hours, 37° C.; DPV15-AmB and AmB in μg/ml of AmB active product
# [2] = literature (Tabosa Do Egito et al. 1996); cited from earlier work
smiles,measurement,setting,value
"C[C@@H]1[C@H](O)[C@@H](C)/C=C/C=C/C=C/C=C/C=C/C=C/C=C/[C@H](O[C@@H]2O[C@H](C)[C@@H](O)[C@H](N)[C@@H]2O)C[C@@H]2O[C@](O)(C[C@@H](O)C[C@@H](O)[C@H](O)CC[C@@H](O)C[C@@H](O)CC(=O)O[C@H]1C)C[C@H](O)[C@H]2C(=O)O [AmB, Amphotericin B]",MIC,[1],0.25 µg/mL
same,MTD,[2],1 mg/kg
